Source: ChEMBL document CHEMBL5370608, “Selective and Bioavailable HDAC6 2-(Difluoromethyl)-1,3,4-oxadiazole Substrate Inhibitors and Modeling of Their Bioactivation Mechanism” (J Med Chem, 2023)
In brackets after ≈: the same amount, converted by molar mass.

Tests used:
[1] = Aqueous solubility of the compound at pH 7.4; type: physicochemical
[2] = target: T1, Protein deacetylase HDAC6 (Homo sapiens, UniProt Q9UBN7); test: Stability of the compound assessed as full-length human HDAC6 mediated-drug degradation measured after 96 hrs by time-resolved mass spectrometry analysis; type: ADME
T1 sequence (Q9UBN7 whole entry): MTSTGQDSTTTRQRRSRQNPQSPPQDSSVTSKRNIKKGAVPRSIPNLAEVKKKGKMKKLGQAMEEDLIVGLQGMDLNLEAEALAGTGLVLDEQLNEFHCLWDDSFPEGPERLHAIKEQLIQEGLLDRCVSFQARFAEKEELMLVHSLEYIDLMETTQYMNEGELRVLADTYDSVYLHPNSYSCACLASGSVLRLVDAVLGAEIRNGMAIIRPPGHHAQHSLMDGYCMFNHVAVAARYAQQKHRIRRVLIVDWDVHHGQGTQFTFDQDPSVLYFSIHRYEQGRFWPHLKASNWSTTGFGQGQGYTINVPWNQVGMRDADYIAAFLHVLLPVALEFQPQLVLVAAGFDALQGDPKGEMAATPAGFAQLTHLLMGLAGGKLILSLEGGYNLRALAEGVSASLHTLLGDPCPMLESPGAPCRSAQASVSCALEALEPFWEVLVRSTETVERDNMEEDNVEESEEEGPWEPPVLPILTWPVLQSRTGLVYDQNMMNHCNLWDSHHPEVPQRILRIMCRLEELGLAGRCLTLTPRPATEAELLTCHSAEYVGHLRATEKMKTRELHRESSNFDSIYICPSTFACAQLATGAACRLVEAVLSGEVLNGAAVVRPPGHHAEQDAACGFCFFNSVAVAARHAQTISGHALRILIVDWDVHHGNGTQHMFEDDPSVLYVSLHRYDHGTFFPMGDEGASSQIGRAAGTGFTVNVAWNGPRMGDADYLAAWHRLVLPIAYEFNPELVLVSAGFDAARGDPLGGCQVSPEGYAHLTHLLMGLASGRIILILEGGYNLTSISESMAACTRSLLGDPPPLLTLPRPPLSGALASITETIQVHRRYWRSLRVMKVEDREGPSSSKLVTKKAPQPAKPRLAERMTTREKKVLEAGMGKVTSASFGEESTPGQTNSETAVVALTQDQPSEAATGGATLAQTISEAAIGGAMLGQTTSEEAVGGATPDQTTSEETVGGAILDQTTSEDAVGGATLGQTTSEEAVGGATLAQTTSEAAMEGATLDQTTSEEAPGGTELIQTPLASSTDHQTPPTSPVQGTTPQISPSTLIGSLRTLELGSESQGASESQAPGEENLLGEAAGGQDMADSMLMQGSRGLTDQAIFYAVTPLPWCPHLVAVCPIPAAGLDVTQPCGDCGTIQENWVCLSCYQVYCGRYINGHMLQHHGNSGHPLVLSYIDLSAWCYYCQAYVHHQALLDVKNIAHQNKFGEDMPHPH

Histone deacetylase 5 = Histone deacetylase 5 (Homo sapiens, UniProt Q9UQL6); test: Inhibition of human recombinant HDAC5 incubated for 30 mins by fluorimetry analysis
Chain of Histone deacetylase 5 (Q9UQL6 whole entry): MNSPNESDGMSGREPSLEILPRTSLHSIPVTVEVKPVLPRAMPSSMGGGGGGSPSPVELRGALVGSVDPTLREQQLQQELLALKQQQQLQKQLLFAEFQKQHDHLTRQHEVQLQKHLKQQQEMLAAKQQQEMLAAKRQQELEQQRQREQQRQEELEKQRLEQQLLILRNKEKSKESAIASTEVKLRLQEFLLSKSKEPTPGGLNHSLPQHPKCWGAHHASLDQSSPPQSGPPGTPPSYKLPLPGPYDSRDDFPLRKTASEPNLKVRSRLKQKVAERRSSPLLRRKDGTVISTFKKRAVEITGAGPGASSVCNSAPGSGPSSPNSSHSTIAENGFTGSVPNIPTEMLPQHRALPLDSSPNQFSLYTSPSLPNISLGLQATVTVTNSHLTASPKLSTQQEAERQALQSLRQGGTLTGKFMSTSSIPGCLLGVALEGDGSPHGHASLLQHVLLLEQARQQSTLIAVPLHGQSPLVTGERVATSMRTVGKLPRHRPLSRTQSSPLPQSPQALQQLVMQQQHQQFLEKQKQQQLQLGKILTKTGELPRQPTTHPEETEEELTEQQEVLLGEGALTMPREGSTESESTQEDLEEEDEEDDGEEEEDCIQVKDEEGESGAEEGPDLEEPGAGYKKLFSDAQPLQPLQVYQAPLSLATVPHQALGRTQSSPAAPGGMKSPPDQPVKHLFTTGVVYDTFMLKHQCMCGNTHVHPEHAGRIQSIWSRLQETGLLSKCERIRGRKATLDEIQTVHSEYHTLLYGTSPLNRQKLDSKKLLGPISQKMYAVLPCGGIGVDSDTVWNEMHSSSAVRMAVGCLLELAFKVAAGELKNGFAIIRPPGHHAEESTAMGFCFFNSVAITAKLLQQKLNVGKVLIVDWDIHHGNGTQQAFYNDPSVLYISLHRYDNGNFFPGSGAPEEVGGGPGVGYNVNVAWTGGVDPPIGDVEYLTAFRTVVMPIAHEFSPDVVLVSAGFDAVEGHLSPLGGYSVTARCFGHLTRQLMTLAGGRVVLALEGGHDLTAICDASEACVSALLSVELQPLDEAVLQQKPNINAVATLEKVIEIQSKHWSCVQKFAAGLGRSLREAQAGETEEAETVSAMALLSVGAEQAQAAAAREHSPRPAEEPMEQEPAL

Histone deacetylase 3 = Histone deacetylase 3 (Homo sapiens, UniProt O15379); test: Inhibition of human recombinant HDAC3 incubated for 10 mins by Spectrophotometric analysis
Chain of Histone deacetylase 3 (O15379 whole entry): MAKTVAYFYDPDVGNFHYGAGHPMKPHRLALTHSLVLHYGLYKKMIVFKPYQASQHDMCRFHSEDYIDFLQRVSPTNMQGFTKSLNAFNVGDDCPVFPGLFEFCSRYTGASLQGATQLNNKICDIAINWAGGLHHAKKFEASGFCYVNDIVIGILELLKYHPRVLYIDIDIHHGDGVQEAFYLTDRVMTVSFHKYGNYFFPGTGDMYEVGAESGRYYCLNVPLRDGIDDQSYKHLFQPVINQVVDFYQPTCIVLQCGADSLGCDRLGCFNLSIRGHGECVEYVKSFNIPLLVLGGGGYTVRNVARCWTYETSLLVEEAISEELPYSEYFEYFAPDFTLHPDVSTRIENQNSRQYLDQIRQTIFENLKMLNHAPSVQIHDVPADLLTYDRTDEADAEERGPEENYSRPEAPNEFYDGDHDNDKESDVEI

[3] = Metabolic stability in human liver microsomes assessed as disappearance of parent compound; type: ADME, Microsome; details: read-out: CLH
THP-1 = test: Cytotoxicity against human THP-1 cells assessed as reduction in cell viability by alamar blue staining based assay; type: functional
Histone deacetylase 2 = Histone deacetylase 2 (Homo sapiens, UniProt Q92769); test: Inhibition of human recombinant HDAC2 incubated for 15 mins by fluorimetry analysis
Chain of Histone deacetylase 2 (Q92769 whole entry): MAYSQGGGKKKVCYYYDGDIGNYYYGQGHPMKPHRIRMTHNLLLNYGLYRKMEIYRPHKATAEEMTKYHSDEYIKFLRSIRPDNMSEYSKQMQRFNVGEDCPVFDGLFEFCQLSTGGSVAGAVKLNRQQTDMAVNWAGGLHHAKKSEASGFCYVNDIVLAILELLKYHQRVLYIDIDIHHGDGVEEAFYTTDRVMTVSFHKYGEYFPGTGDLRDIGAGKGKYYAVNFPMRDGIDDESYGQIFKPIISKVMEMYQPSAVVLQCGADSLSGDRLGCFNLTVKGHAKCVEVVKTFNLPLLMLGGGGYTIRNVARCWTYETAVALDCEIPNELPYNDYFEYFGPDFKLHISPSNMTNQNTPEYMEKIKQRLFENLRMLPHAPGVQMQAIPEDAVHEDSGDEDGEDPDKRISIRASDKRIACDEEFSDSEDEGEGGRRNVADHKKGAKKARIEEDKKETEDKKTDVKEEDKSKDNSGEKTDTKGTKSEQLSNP

[4] = target: T1, Protein deacetylase HDAC6; test: Inhibition of HDAC6 in human BEAS-2B cells assessed as deacetylation of acetylated histone-3 level incubated for 24 hrs by Western blot analysis; type: cell-based
[5] = target: T2, Polyamine deacetylase HDAC10 (Homo sapiens, UniProt Q969S8); test: Inhibition of human recombinant HDAC10 incubated for 45 mins by fluorimetry analysis
T2 sequence (Q969S8 whole entry): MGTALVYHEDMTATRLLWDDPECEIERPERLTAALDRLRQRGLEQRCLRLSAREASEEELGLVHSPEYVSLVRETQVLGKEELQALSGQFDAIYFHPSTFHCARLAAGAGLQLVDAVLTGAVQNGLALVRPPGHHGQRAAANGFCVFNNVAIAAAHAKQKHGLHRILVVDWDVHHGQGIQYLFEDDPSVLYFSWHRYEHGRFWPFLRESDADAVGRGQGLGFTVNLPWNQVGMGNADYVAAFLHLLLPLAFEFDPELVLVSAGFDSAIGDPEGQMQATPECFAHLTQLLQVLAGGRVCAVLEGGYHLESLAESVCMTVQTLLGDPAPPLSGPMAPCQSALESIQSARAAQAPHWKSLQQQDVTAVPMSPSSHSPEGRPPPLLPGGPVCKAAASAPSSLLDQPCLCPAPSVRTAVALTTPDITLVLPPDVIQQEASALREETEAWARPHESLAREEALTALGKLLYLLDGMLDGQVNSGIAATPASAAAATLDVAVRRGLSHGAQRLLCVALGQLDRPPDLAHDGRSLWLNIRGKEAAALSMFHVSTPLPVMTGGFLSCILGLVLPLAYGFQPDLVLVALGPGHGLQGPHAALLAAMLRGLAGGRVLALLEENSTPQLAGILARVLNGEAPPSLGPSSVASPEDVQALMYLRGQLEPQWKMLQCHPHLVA

Histone deacetylase 1 = Histone deacetylase 1 (Homo sapiens, UniProt Q13547); test: Inhibition of human recombinant HDAC1 incubated for 15 mins by fluorimetry analysis
Chain of Histone deacetylase 1 (Q13547 whole entry): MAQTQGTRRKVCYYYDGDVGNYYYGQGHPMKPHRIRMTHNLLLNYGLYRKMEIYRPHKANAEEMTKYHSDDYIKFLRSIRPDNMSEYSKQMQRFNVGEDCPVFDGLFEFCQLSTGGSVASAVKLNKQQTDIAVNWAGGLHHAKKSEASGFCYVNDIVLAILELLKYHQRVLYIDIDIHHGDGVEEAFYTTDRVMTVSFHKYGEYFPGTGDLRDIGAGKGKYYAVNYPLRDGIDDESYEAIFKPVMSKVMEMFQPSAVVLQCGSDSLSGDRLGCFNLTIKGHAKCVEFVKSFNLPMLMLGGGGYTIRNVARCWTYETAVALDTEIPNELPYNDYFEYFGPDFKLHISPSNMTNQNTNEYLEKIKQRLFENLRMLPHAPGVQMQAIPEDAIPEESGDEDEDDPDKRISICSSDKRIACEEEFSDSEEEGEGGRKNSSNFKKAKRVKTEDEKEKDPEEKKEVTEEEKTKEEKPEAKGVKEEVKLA

solubility [1] | Stability [2] | IC50 (Histone deacetylase 5) | IC50 (Histone deacetylase 3) | microsomal CLint [3] | IC50 (Histone deacetylase 2) | IC50 [4] | IC50 [5] | IC50 (Histone deacetylase 1) | SMILES | IC50 (THP-1; read-out: pIC50 (converted)) | IC50 (THP-1; read-out: IC50)
410 µM (≈ 146 µg/mL) | Unstable | > 100 µM | > 100 µM | < 3 µL/min/mg | > 100 µM | > 10 µM | > 100 µM | > 100 µM | FC(F)c1nnc(-c2ccc(Cn3nnc(-c4ccccn4)n3)nc2)o1 | > 251 µM | 
810 µM (≈ 282 µg/mL) | Stable | 3.7 µM | 87 µM | < 3 µL/min/mg | 71 µM | > 10 µM | 18 µM | 17 µM | O=C(NO)c1cnc(NC2(c3ccccc3)CCC(F)(F)CC2)nc1 | 100 µM | 94 µM
60 µM (≈ 23.1 µg/mL) |  | > 100 µM | > 100 µM | < 3 µL/min/mg | > 100 µM | > 10 µM | > 100 µM | > 100 µM | COc1ccccc1-c1nnn(Cc2ccc(-c3nnc(C(F)F)o3)cn2)n1 |  | 
110 µM (≈ 54.4 µg/mL) | Unstable | > 100 µM | > 100 µM | < 3 µL/min/mg | > 100 µM | > 10 µM | > 100 µM | > 100 µM | CS(=O)(=O)NCC(Nc1ncc(-c2nnc(C(F)F)o2)cn1)c1ccc(OC(F)(F)F)cc1 (stereo not given) | 126 µM | 126 µM
